Measurements reported in patent publication US20180311357A1, “EXTERNAL PREPARATION AND METHOD FOR PRODUCING SAME” (SEKISUI CHEMICAL CO., LTD., priority 2015, published 2018).

Conditions: pH 7
Experimental: In the present invention, the octanol/water partition coefficient is obtained as follows. After the chemical is added into a flask containing octanol and an aqueous buffer at pH 7, the mixture is shaken. Based on the chemical concentration in each phase, the octanol/water partition coefficient is calculated by the following equation. Octanol/water partition coefficient=Log 10(concentration in octanol phase/concentration in aqueous phase)

octanol/water partition coefficient: −5.0
Structure (SMILES): O.O.O.O.O.O=P([O-])(O)C(O)(Cc1cccnc1)P(=O)(O)O.O=P([O-])(O)C(O)(Cc1cccnc1)P(=O)(O)O.[Na+].[Na+] [hemipenta hydrate risedronate monosodium]
